Laboratory results reported in patent US20210386367A1, “DEVICES AND SYSTEMS FOR GASTROINTESTINAL MICROBIOME DETECTION AND MANIPULATION” (Progenity, Inc., priority 2018, published 2021).

Key:
Type in all cases: cell-based
[1] = tested on: Enterococcus faecalis clinical isolates; assay: MIC distribution against clinical isolates; details: 50 E. faecalis isolates
[2] = tested on: Staphylococcus aureus clinical isolates; assay: MIC distribution against clinical isolates; details: 50 S. aureus isolates
Enterococcus faecalis = assay: Broth microdilution MIC, 50 clinical isolates
Method in brief: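 CLSI broth microdilution in cation-adjusted Mueller Hinton broth, with 3% lysed horse blood added for streptococci, which were incubated with CO2.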

Streptococcus spp. = assay: Broth microdilution MIC, 54 clinical isolates; details: 54 Streptococcus spp. clinical isolates
Protocol: (§1) Minimal inhibitory concentration (MIC) values were determined by broth microdilution or agar dilution in accordance with guidelines from the Clinical and Laboratory Standards Institute (CLSI; (1) “Methods for Dilution Antimicrobial Susceptibility Tests for Bacteria That Grow Aerobically; Approved Standard; 11th ed.” CLSI standard M07-A11, 2018; (2) “Performance Standards for Antimicrobial Susceptibility Testing; Twenty-Eighth Informational Supplement,” CLSI document M100-S28, 2018; and (3) “Methods for Antimicrobial Susceptibility Testing of Anaerobic Bacteria; Approved Standard—Eighth Edition,” CLSI document M11-A8, 2012).
(§2) Tested aerobically by broth microdilution: • Escherichia coli, n=50 • Klebsiella spp., n=50 • Pseudomonas aeruginosa, n=50 • Streptococcus spp., n=50 • Staphylococcus aureus, n=50 • Enterococcus faecalis, n=50 • Enterobacter aerogenes, n=50 • Proteus mirabilis, n=50
(§3) Broth microdilution testing of aerobic bacteria was conducted in cation-adjusted Mueller Hinton broth (MHBII). For testing streptococci, lysed horse blood (LHB) was added to MHBII broth at a final concentration of 3%. Where LHB was used, it was added after filtering.
(§4) Broth microdilution susceptibility testing in 96-well microplates was conducted in accordance with CLSI methods (1) and (2). Automated liquid handlers were used to conduct serial dilutions and liquid transfers, including the Multidrop 384 (Labsystems, Helsinki, Finland), Biomek 2000, and the Biomek FX (Beckman Coulter, Fullerton, Calif.). All wells in columns 2 through 12 of a standard 96-well microdilution plate (Costar 3795) were filled with 150 μL of the appropriate diluent. Then, 300 μL of the test agents were added to the wells of column 1 of the plates at 100× the highest final concentration to be tested. Serial two-fold dilutions were made across the rows through column 11 using the Biomek 2000. The wells of column 12 contained no drug and served as the growth control wells. This plate served as the “mother plate” from which MIC assay plates or “daughter plates” were made.
(§5) The daughter plates were loaded with 190 μL per well of the appropriate medium using the Multidrop 384. The daughter plates were created using the Biomek FX which transferred 2 μL of drug solution from each well of a mother plate to each corresponding well of the daughter plate in a single step. A standardized inoculum of each test organism was prepared per CLSI methods (1) to equal a 0.5 McFarland standard, followed by a dilution of 1:20 for aerobes and 1:10 for anaerobes. The plates were then inoculated with 10 μL of the diluted inoculum using the Biomek 2000 from low to high drug concentration, resulting in a final concentration of approximately 5×10^5 CFU/mL per well. An un-inoculated plate was incubated in parallel for each medium for the purpose of assessing solubility of the drug in the test media.
(§6) Inoculated plates were stacked 3 or 4 high, covered with a sterile lid on the top plate, placed into boxes with CO2 planchets (streptococci) or plastic bags (all other isolates). Plates were incubated at 35° C. for 16-24 hr in ambient air for aerobes or for 42-48 hr in the anaerobic environment of the Bactron II anaerobe chamber (Sheldon Manufacturing Co.; Cornelius, Oreg.). Following incubation, the microplates were removed from the incubator and viewed from the bottom using a plate viewer. The MIC values were read and recorded as the lowest concentration of drug that inhibited visible growth of the organism as per CLSI methods (1) and (2).

Streptococcus agalactiae = assay: Broth microdilution MIC, 20 clinical isolates; details: 20 Streptococcus agalactiae clinical isolates
Protocol: as §1, §2, §3, §4, §5, §6

[3] = tested on: Viridans group Streptococcus; assay: Broth microdilution MIC, 15 clinical isolates; details: 15 Viridans group Streptococci clinical isolates
Protocol: as §1, §2, §3, §4, §5, §6

Substance: piperacillin/tazobactam [piperacillin-tazobactam]
- Cumulative percentage of isolates inhibited at MIC ([1]; MIC 1 μg/mL): 10.0%
- Number of test isolates at MIC ([1]; MIC 1 μg/mL): 4
- Cumulative percentage of isolates inhibited at MIC ([1]; MIC 2 μg/mL): 32.0%
- Number of test isolates at MIC ([1]; MIC 2 μg/mL): 11
- Cumulative percentage of isolates inhibited at MIC ([1]; MIC 4 μg/mL): 70.0%
- Number of test isolates at MIC ([1]; MIC 4 μg/mL): 19
- Cumulative percentage of isolates inhibited at MIC ([1]; MIC 8 μg/mL): 90.0%
- Number of test isolates at MIC ([1]; MIC 8 μg/mL): 10
- Cumulative percentage of isolates inhibited at MIC ([1]; MIC 16 μg/mL): 98.0%
- Number of test isolates at MIC ([1]; MIC 16 μg/mL): 4
- Cumulative percentage of isolates inhibited at MIC ([1]; MIC >64 μg/mL): 100.0%
- Number of test isolates at MIC ([1]; MIC >64 μg/mL): 1
- Cumulative percentage of isolates inhibited at MIC ([1]; MIC […]): 2.0%
- Number of test isolates at MIC ([1]; MIC […]): 1
- Cumulative percentage of isolates inhibited at MIC ([2]; MIC 0.5 μg/mL): 6.0%
- Number of test isolates at MIC ([2]; MIC 0.5 μg/mL): 3
- Cumulative percentage of isolates inhibited at MIC ([2]; MIC 1 μg/mL): 24.0%
- Number of test isolates at MIC ([2]; MIC 1 μg/mL): 9
- Cumulative percentage of isolates inhibited at MIC ([2]; MIC 2 μg/mL): 42.0%
- Number of test isolates at MIC ([2]; MIC 2 μg/mL): 9
- Cumulative percentage of isolates inhibited at MIC ([2]; MIC 4 μg/mL): 46.0%
- Number of test isolates at MIC ([2]; MIC 4 μg/mL): 2
- Cumulative percentage of isolates inhibited at MIC ([2]; MIC 8 μg/mL): 52.0%
- Number of test isolates at MIC ([2]; MIC 8 μg/mL): 3
- Cumulative percentage of isolates inhibited at MIC ([2]; MIC 16 μg/mL): 54.0%
- Number of test isolates at MIC ([2]; MIC 16 μg/mL): 1
- Cumulative percentage of isolates inhibited at MIC ([2]; MIC 32 μg/mL): 66.0%
- Number of test isolates at MIC ([2]; MIC 32 μg/mL): 6
- Cumulative percentage of isolates inhibited at MIC ([2]; MIC 64 μg/mL): 92.0%
- Number of test isolates at MIC ([2]; MIC 64 μg/mL): 13
- Cumulative percentage of isolates inhibited at MIC ([2]; MIC >64 μg/mL): 100.0%
- Number of test isolates at MIC ([2]; MIC >64 μg/mL): 4
- MIC50 (Enterococcus faecalis): 4 µg/mL
- MIC90 (Enterococcus faecalis): 8 µg/mL
- Mode (Enterococcus faecalis): 4 µg/mL
- MIC50 (Streptococcus spp.): 0.12 µg/mL
- MIC90 (Streptococcus spp.): 1 µg/mL
- MIC range (Streptococcus spp.): 0.015 to 4 µg/mL
- Mode (Streptococcus spp.; modal MIC): 0.25 µg/mL
- MIC50 (Streptococcus agalactiae): 0.25 µg/mL
- MIC90 (Streptococcus agalactiae): 0.25 µg/mL
- MIC range (Streptococcus agalactiae): 0.12 to 0.25 µg/mL
- Mode (Streptococcus agalactiae; modal MIC): 0.25 µg/mL
- MIC50 [3]: 0.12 µg/mL
- MIC90 [3]: 4 µg/mL
- MIC range [3]: 0.015 to 4 µg/mL
- Mode ([3]; modal MIC): 0.06 µg/mL
